According to ChEMBL document CHEMBL4828774, “Novel PRMT5 Inhibitors for Treating Cancer” (ACS Med Chem Lett, 2021):

test: Cytotoxicity against human HCT116-MTAP null cells assessed as reduction in cell viability incubated for 6 days by CellTiter-Glo luminescent assay; assay type: functional, cell-based; conditions: 144 h

`Cc1cc2cc(C(=O)N(Cc3ccc(C(F)(F)F)cn3)[C@@H]3CCCc4cn[nH]c43)ccc2nc1N` and `Cc1cc2cc(C(=O)N(Cc3ccc(C(F)(F)F)cn3)[C@@H]3CCCc4nccnc43)ccc2nc1N` are within 1.5-fold of each other in IC50: 0.01 µM for the first, 0.012 µM for the second.

`Cc1cc2cc(C(=O)N(Cc3ccc(C(F)(F)F)cn3)[C@@H]3CCOc4ccc(F)nc43)ccc2nc1N` and `Cc1cc2cc(C(=O)N(Cc3ccc(C(F)(F)F)cn3)[C@H](C)c3cccc(F)n3)ccc2nc1N` are the same in IC50: 0.013 µM for the first, 0.013 µM for the second.

`C[C@H](c1ncccn1)N(Cc1ccc(C(F)(F)F)nn1)C(=O)c1cnc2nc(N)c(I)cc2c1` and `Cc1cc2cc(C(=O)N(Cc3ccc(Br)cn3)[C@H](C)c3ncccn3)ccc2nc1N` are the same in IC50: 0.015 µM for the first, 0.015 µM for the second.
